Key:
[1] = biological target: NLRP3 inflammasome (Homo sapiens, UniProt Q96P20); test: Inhibition of IL-1β production in LPS stimulated (alternative pathway) human whole blood; type: cell-based
Experimental: Inflammasome activation and whole blood assays were essentially carried out as described earlier. Details can be found in the supplementary information section accompanying this publication. A protocol for blood draws from healthy volunteers and use of the blood in preclinical assays was approved by Western Institutional Review Board, Inc (Puyallup, WA, USA). Informed consent was obtained from each donor prior to the first blood draw.
Cell viability was determined by addition of an equal volume of CellTiter-Glo® 2.0 reagent (Promega) to the remaining cells/supernatant in each well. Intracellular Caspase-1 activity was measured using the Caspase-Glo® assay (Promega) according to the manufacturer’s instructions. The biochemical capsase-1 assay was conducted at Reaction Biology Corporation (Malvern, USA). Human IL-1β, IL-1α, and TNFα and mouse IL-1β were measured in cell culture supernatants using homogeneous time resolved fluorescence assay kits (HTRF, Cisbio, Codolet, France). Human IL-18 was measured in cell culture supernatants using an ELISA kit (R&D Systems, Minneapolis, MN, USA). Plasma IL-1β concentrations were determined by Quantikine® ELISA (R&D Systems, Minneapolis, MN). […]
flagellin, prepared in Opt iMEM and combined with Lipofectamine 2000. […]

[2] = biological target: T1, NLRC4 inflammasome (Mus musculus, UniProt Q3UP24); test: IL-1β production in mouse BMDMs after NLRC4 activation (LPS + flagellin); type: cell-based; conditions: mBMDMs, concentrations up to 10 µM
T1 construct: host or cells: mouse BMDMs, LPS + transfected flagellin
Experimental: Cell viability was determined by addition of an equal volume of CellTiter-Glo® 2.0 reagent (Promega) to the remaining cells/supernatant in each well. Intracellular Caspase-1 activity was measured using the Caspase-Glo® assay (Promega) according to the manufacturer’s instructions. The biochemical capsase-1 assay was conducted at Reaction Biology Corporation (Malvern, USA). Human IL-1β, IL-1α, and TNFα and mouse IL-1β were measured in cell culture supernatants using homogeneous time resolved fluorescence assay kits (HTRF, Cisbio, Codolet, France). Human IL-18 was measured in cell culture supernatants using an ELISA kit (R&D Systems, Minneapolis, MN, USA). Plasma IL-1β concentrations were determined by Quantikine® ELISA (R&D Systems, Minneapolis, MN).
4H). MS: m/z 433.1 (M+H+). […]
flagellin, prepared in Opt iMEM and combined with Lipofectamine 2000. […] After priming Nlrp3 -/- mBMDMs with 100 ng/mL of LPS for 3- 5 h, cells were exposed to 100 ng/mL L18- MDP and incubated overnight.At the end of the incubation period of the assays above, plates were briefly centri fuged and hal f of the cell culture supern atant remo ved and either analysed i mmediately or stored at - 80°C for subs equent cytokine […]

Sequence of NLRP3 inflammasome (Q96P20 whole entry): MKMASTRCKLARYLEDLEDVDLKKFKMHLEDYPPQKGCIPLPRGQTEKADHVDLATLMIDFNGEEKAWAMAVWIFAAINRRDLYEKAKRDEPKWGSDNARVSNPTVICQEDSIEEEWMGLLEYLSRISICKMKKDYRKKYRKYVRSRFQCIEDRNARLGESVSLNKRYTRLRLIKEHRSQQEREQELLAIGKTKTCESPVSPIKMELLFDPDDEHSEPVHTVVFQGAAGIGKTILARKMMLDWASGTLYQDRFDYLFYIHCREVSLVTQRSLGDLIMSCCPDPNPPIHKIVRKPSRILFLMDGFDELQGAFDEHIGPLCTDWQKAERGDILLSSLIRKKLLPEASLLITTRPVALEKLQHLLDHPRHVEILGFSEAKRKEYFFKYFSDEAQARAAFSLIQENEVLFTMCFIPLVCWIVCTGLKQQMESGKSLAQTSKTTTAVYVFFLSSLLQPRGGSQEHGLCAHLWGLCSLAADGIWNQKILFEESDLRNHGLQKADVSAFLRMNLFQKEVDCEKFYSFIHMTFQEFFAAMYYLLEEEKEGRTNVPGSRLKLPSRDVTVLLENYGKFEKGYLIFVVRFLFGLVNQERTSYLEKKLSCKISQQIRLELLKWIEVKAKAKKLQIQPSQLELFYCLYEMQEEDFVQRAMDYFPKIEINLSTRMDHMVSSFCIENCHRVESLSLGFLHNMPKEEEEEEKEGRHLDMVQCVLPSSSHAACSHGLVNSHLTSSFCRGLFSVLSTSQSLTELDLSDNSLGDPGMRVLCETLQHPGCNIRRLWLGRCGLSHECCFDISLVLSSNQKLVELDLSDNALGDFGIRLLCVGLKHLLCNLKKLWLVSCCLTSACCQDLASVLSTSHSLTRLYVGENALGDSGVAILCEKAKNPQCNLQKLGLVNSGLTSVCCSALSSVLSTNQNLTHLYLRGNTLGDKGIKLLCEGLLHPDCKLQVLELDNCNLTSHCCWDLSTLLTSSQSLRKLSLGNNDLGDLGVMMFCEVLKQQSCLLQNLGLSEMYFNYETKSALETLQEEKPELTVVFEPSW
T1 sequence (Q3UP24 whole entry): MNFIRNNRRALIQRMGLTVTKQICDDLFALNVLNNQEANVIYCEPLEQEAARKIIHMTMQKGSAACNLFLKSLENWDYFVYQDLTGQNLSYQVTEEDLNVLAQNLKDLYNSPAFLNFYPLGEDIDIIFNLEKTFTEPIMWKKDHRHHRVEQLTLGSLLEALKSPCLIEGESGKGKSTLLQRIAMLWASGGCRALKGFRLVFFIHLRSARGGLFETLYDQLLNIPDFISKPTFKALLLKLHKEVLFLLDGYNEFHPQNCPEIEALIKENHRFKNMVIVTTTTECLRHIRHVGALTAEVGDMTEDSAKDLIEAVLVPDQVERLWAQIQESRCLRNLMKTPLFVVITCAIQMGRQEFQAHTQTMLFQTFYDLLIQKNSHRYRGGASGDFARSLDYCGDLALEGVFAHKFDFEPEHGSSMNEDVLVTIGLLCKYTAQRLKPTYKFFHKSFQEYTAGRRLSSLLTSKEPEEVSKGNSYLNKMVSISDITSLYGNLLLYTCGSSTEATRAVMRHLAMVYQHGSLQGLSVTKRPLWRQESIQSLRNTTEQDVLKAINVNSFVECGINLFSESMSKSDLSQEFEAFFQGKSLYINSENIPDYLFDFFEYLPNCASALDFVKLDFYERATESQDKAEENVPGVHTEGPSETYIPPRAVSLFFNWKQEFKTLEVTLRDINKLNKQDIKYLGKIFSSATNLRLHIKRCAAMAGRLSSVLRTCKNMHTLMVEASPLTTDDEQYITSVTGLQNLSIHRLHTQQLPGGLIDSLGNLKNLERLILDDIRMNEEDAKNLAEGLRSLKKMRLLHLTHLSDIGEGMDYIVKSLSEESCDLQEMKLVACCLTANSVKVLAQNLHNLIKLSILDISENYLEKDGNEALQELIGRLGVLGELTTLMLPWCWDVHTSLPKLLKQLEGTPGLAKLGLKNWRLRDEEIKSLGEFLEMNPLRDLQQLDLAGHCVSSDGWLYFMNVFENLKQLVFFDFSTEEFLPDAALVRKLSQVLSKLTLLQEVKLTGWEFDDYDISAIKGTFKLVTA

In the case of `CO[C@@H]1COc2c(S(=O)(=O)NC(=O)Nc3c4c(cc5c3CCC5)CCC4)cnn2C1` [JT002], the IC50 ([1]; Human whole blood, LPS only (alternative pathway), read-out: Geo Av IC50, IL-1β) is reported as 32 nM, the “IC50 in human whole blood, alternative (LPS) versus canonical (LPS + ATP) NLRP3 pathway activation” value ([1]; how much lower the alternative pathway IC50 is) is reported as “threefold more potent” and the “inhibition of IL-1β production after NLRC4 activation” value [2] is reported as “no inhibition of IL-1β production”.

From PMC10439952, “JT002, a small molecule inhibitor of the NLRP3 inflammasome for the treatment of autoinflammatory disorders” (Scientific Reports, 2023)
